Measurements published in patent US11510931B2, “Compositions and methods for treating ophthalmic conditions” (MEDICON PHARMACEUTICALS, INC., priority 2016, dated 2022).

What was measured:
Format in all cases: in vivo, rabbit
Conditions in all cases: Con A DED rabbits, 6 days, eye drops 3×/day; PS nanoparticles, cyclosporine 0.05%, lifitegrast 5%; mean ± SEM
[1] = test system: concanavalin A-induced dry eye in rabbits; assay: Concanavalin A (Con A)-induced dry eye disease (DED) model in rabbits: TBUT, Schirmer test, tear osmolarity, tear lactoferrin
Description: To assess the efficacy of PS on DED an improved concanavalin A model was used. In the concanavalin A model, dry eye is induced by injecting the lacrimal glands of a mammal with concanavalin A, a selective T cell mitogen that induces a lymphocytic infiltrate in these glands. The concanavalin A model is generally described in (Barabino S. Animal models of dry eye. Arch Soc Esp Oftalmol. 2005; 80(12):693-4). Concanavalin A was injected to the lacrimal glands under ultrasound guidance, thus eliminating injections to the vicinity of the gland (as opposed to the gland itself). The head and the tail of the major lacrimal gland of the rabbit were injected separately. The dose of concanavalin A was optimized for DED signs.
In the testing described below, four markers of DED are monitored: the tear break up time (TBUT), the Schirmer test, tear osmolarity, and tear lactoferrin levels. All assays were performed at the same clock time (±1 hr) to avoid assay variability on account of circadian variations.
In an efficacy experiment using the concanavalin A model, one group of rabbits was treated with compound 5, also known as phosphosulindac and abbreviated as PS, 1.5% eye drops and one group with vehicle. […] It is thus clear that PS applied topically suppresses DED.
Con A was injected under ultrasound guidance into all the lacrimal glands and the success of the injection was verified by a post-injection ultrasound image (see FIG. 1 and FIG. 2). […] This variation explains why the blind injections recommended in the original method are often unsuccessful. This was confirmed by mixing the Con A solution with methylene blue and tracking its course after injection. In about ⅓ of the cases, Con A ended up outside the gland.
Four parameters of efficacy were evaluated instead of the usual one or two. They include (a) the tear break up time (TBUT), determined using 0.2% fluorescein over the eye and recording the time taken to develop black dots, lines or obvious disruption of the fluorescein film; (b) tear osmolarity, measured using TearLab Osmolarity Test and following the manufacturer's instructions (TearLab Corp., San Diego, Calif.); (3) Schirmer tear test (STT), determined using Schirmer strips (EagleVision, Denville, N.J.) inserted between the cornea and the palpebral conjunctiva at the mid-point of the lower lid and measuring the length of moistened strip at 5 min; and (4) tear lactoferrin levels measured by ELISA kit (MyBiosource, San Diego, Calif.) following the instructions of the manufacturer. All four have been used in clinical practice and correlate with the clinical activity of the disease. The STT is the least reliable and, as result, it is clinically used less than half as frequently as TBUT.
The injections of Con A to the lacrimal glands were repeated weekly as needed. When longer than a 1-week periods of study are needed, repeat injections prolong dry eye for at least 3 weeks, making the originally acute model chronic.
PS Suppresses Con A—Induced Dry Eye in Rabbits. The effect of PS on dry eye was determined in New Zealand White (NZW) rabbits, 2-3 kg (Charles River Labs, Waltham, Mass.). These rabbits were housed singly in rooms with strict temperature (70±5° F.) and humidity (45±5%) control and acclimated for at least 2 weeks prior to induction of dry eye by injection of Con A as above. NZW rabbits with Con A-induced dry eye (three sets of injections) were treated with PS formulated as nanoparticles and administered topically as eye drops 3×/day for 21 days, starting on the day of Con A injection. […] Similar results were obtained on days 5 and 14 (data not shown).
Using this model, we compared the effect of PS to that of cyclosporine and lifitegrast. Rabbits were treated for 6 days with PS as above or cyclosporine 0.05% or lifitegrast 5% eye drops 3×/day. In addition to determining TUBT, osmolarity and STT, we measured the levels of IL-8 and IL-1β in the ILGs of the rabbits harvested at euthanasia. […]

IL-8 = IL-8 levels in the ILG of rabbits with DED (ELISA)
Description: (§1) Using this model, we compared the effect of PS to that of cyclosporine and lifitegrast. Rabbits were treated for 6 days with PS as above or cyclosporine 0.05% or lifitegrast 5% eye drops 3×/day. In addition to determining TUBT, osmolarity and STT, we measured the levels of IL-8 and IL-1β in the ILGs of the rabbits harvested at euthanasia. Both of these cytokines are significant mediators of inflammation in DED. As shown in the table below, PS had statistically significant effects on TBUT, tear osmolarity, IL-8 and IL-1β levels. […] Of note, lifitegrast suppressed STT below the levels of the vehicle group and this suppression was statistically significant, but in the opposite direction for a useful therapeutic effect.
(§2) Moreover, for all three cytokines PS suppressed their unstimulated levels as well (62%, 84% and 4.7% reduction, respectively). In addition, PS suppressed the levels of IL-8 by 64% and IL-1β (not expressed by the cultured cells) by 61% in the ILG of rabbits treated with PS for 1 week compared to controls treated with vehicle (FIG. 8B). TGF-β was not detectable by the method in ILG homogenates. All these changes were statistically significant (p<0.001-0.04, except for the unstimulated TGF-β).

IL-1β = IL-1β levels in the ILG of rabbits with DED (ELISA)
Description: as §1, §2

Compound: CS(=O)(=O)c1cccc(C[C@H](NC(=O)c2c(Cl)cc3c(c2Cl)CCN(C(=O)c2ccc4ccoc4c2)C3)C(=O)O)c1 [Lifitegrast, lifitegrast, reference compound]
- Osmolarity [1]: 290 ± 4.2 mOsm/L
- STT [1]: 6.9 ± 0.7 mm
- TBUT [1]: 9.1 ± 3.0 s
- IL-8 in the ILG (IL-8): 9.0 ± 2.4 pg/mg protein
- IL-1β in the ILG (IL-1β): 11.5 ± 1.9 pg/mg protein
